Measurements as given in patent US11912705B2, “Cathinone derivatives, pharmaceutical formulations, and methods” (The Corporation of Mercer University, priority 2020, dated 2024).
Where two headings read alike, the source gives them in different places.

Key:
[1] = biological target: T1, human M3R (Homo sapiens, UniProt P20309); assay: biochemical; format: binding; conditions: estimate from 1 and 10 μM concentrations (N = 2); N.C. = <5% displacement of radioligand at 10 μM; read-out: estimated pKi at M3R (converted)
T1 construct: host or cells: HEK293 (CRL-1573, ATCC), transient
T1 sequence (P20309 whole entry): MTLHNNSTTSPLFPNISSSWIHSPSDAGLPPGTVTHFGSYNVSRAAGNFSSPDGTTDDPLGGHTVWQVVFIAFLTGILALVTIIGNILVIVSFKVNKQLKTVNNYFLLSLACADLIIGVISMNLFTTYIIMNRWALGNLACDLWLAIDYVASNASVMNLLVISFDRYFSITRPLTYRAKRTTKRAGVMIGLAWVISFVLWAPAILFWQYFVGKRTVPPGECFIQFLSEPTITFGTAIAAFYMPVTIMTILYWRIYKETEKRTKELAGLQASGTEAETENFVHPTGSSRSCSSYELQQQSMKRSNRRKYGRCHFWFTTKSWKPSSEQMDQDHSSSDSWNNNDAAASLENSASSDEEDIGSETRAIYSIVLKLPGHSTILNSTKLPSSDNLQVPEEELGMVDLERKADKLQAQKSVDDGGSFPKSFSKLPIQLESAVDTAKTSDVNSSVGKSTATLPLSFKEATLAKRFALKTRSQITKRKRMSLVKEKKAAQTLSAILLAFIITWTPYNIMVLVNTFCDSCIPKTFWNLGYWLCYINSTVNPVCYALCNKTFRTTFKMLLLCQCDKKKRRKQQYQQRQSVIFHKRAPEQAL
Procedure: (§1) Radioligand Competition Binding: Radioligand competition binding assays were conducted using membranes collected from transiently transfected HEK293 cells (P<20 from a procured stock, CRL-1573, ATCC, Manassas, Va., USA) as previously described (Chen, Y., et al. Drug Test Anal 11, 990-998). Briefly, cells ˜90% confluent in 10 cm plates were transfected with 5 μg human M1R, M2R, M3R, M4R or […] cDNA (cDNA resource center, Bloomsburg, Pa., USA) using a lipid-based method (LipoD293 reagent, SignaGen Laboratories, Rockville, Md., USA). Membranes were collected by centrifugation about 48 hours later and stored at −80° C. until used. […] After a 90-minute incubation at room temperature on a shaker, contents from the plates were rapidly filtered through GF/B fiberglass filter mats, pre-soaked with ice cold 50 mM Tris buffer (pH 7.4), using a Microbeta Filtermat-96 cell harvester (Perkin Elmer, Waltham, Mass., USA). Approximately 200 mL of ice cold, 50 mM Tris buffer was then vacuumed through filter mats to wash away unbound radioligand. Filter mats were dried on a hot plate and soaked in Betaplate (Perkin Elmer, Waltham, Mass., USA) scintillation fluid in plastic bags. Bags were sealed and placed in cassettes. Radioactivity was measured in a Microbeta2 Microplate Counter (Perkin Elmer, Waltham, Mass., USA), and counts per minute corresponding to each well on the plates were recorded. For full dose-response competition binding assays, increasing half-log unit concentrations of five unsubstituted PSCs were tested at M2Rs and M1Rs, with the same procedures described above.
(§2) Curve Fitting and Statistical Analyses: All data were analyzed by GraphPad 8.3.0 (San Diego, Calif., USA). Ki values were determined from data fit to both one- and two-site models. […] EC50 and IC50 values from functional assays were determined from data fit to the log(agonist) vs. response (three parameters) or log(inhibitor) vs. response (three parameters) model, respectively. Kb values were calculated from IC50 values using the Cheng-Prusoff equation with modification (see, e.g., Leff, P., and Dougall, I. G. (1993) Trends Pharmacol Sci 14, 110-112): Kb=IC50/((2+([A]/[A50])nH)1/nH−1)

[2] = biological target: T2, human M1R (Homo sapiens, UniProt P11229); assay: biochemical; format: binding
T2 construct: host or cells: HEK293 (CRL-1573, ATCC), transient
T2 sequence (P11229 1-460): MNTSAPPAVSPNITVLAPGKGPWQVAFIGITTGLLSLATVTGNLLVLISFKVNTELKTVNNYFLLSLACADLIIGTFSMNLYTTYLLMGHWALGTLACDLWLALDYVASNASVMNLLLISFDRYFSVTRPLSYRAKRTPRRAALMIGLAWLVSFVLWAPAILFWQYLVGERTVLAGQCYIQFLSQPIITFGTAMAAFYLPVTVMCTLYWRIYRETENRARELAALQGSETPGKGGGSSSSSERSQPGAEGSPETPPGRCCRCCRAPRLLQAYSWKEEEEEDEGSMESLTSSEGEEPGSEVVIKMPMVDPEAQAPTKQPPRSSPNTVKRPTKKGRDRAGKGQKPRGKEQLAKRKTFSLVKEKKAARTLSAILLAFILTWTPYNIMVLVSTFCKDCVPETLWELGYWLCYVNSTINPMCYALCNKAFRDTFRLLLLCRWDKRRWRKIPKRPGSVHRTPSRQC
Procedure: as §1, §2

[3] = test system: mitochondrial activity and cellular membranes; conditions: reported by Wojcieszak et al.; cited from earlier work
[4] = biological target: T3, human M4R (Homo sapiens, UniProt P08173); assay: [3H]Scopolamine radioligand competition binding at M4R
T3 construct: host or cells: HEK293 (CRL-1573, ATCC), transient
T3 sequence (P08173 1-479): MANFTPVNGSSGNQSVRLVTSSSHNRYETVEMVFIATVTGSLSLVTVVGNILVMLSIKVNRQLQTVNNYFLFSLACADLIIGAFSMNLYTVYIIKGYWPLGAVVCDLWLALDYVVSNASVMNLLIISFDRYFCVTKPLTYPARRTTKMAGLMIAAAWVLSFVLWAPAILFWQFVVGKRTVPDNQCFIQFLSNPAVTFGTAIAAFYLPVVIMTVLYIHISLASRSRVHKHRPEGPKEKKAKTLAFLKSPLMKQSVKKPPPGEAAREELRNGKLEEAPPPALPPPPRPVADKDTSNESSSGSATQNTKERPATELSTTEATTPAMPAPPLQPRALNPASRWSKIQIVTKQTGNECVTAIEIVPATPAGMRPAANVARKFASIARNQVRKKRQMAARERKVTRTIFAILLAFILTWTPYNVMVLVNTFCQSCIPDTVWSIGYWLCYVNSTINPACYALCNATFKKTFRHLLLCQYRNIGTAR
Procedure: as §1, §2

[5] = biological target: T4, human M2R (Homo sapiens, UniProt P08172); assay: [3H]Scopolamine radioligand competition binding at M2R
T4 construct: host or cells: HEK293 (CRL-1573, ATCC), transient
T4 sequence (P08172 1-466): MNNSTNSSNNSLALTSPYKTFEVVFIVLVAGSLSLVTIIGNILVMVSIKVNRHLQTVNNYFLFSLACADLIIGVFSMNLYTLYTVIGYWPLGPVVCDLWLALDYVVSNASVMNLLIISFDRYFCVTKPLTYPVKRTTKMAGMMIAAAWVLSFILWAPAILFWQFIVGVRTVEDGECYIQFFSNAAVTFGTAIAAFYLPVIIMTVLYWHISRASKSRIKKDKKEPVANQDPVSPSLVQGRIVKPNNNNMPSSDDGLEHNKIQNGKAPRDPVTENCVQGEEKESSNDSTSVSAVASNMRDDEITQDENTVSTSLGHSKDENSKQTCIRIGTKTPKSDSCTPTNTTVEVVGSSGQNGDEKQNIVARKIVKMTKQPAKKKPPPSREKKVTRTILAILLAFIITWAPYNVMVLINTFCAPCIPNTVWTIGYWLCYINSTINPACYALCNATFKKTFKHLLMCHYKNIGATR
Procedure: as §1, §2

[6] = biological target: T5, human M5R (Homo sapiens, UniProt P08912); assay: [3H]Scopolamine radioligand competition binding at M5R
T5 construct: host or cells: HEK293 (CRL-1573, ATCC), transient
T5 sequence (P08912 1-532): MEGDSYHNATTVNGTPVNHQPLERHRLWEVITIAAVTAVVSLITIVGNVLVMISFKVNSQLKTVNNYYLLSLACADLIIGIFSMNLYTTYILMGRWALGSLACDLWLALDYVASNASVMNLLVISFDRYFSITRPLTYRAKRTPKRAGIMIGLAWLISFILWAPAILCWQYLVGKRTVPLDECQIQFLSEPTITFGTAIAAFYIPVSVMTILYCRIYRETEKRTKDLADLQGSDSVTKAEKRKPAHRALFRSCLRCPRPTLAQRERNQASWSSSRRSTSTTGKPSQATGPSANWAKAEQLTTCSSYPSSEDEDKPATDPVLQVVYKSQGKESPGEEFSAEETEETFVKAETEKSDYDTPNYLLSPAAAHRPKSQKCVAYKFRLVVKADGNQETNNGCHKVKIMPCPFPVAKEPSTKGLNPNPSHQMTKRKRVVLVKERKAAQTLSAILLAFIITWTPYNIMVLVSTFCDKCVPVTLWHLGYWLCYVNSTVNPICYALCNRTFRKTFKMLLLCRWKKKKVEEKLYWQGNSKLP
Procedure: as §1, §2

[7] = biological target: T6, human M1Rs (Homo sapiens, UniProt P11229); assay: M1R phosphoinositide hydrolysis (IP-One HTRF); format: cell-based
T6 construct: host or cells: HEK293 (CRL-1573, ATCC), transient
T6 sequence (P11229 1-460): T2 sequence (P11229 1-460)

[8] = biological target: T7, M2Rs (Homo sapiens, UniProt P08172); assay: M2R β-arrestin recruitment; format: cell-based
T7 sequence (P08172 1-466): T4 sequence (P08172 1-466)
Text: Data are shown as normalized means (±SEM) of two, independent determinations, with oxotremorine tested at each concentration in duplicate and α-PHP tested in quadruplicate. [*Basal signaling is defined as the normalized RLU emitted by untreated cells.]

[9] = biological target: T4, human M2R; assay: M2R cAMP signaling (forskolin-stimulated cAMP, oxotremorine agonist); format: cell-based
Procedure: The M2R coupled to Gαi/o proteins, and its agonism functioned to decrease formation of the intracellular second messenger cyclic-adenosine-monophosphate (cAMP). […] In the presence of oxotremorine, an antagonist of the M2R would be expected to reverse the effects of the agonist, thereby increasing cAMP formation.
M2R cAMP Signaling: cAMP measurements were performed with the cAMP Hunter eXpress® CHRM2 CHO-K1 GPCR assay (Eurofins DiscoveRx, Fremont, Calif., USA) according to the manufacturer's protocol. Briefly, in the provided 96-well tissue culture-treated plate, 100 μL of human M2R expressing CHO-K1 cells were seeded in cell plating reagent and incubated (37° C., 5% CO2, 95% humidity) overnight. Cell plating reagent was replaced with 30 μL of cell assay buffer the next day. For agonist stimulation, cells were treated with increasing half-log unit concentrations of oxotremorine in the presence of 10 μM forskolin, followed by incubation for 30 minutes. A cAMP antibody, cAMP working detection solution and enzyme acceptor solution were then added according to the protocol, and the final chemiluminescent signals were detected by a Mithras LB 940 microplate reader (Berthold Technologies, Bad Wildbad, Germany). Antagonist tests were run by pretreating cells with increasing half-log unit concentrations of α-PHP, followed by incubation for one hour. Cells were then treated with EC80 concentration of oxotremorine (130 nM) and 10 μM forskolin. The same incubation and detection procedure used for agonist assays was used for the remaining steps.
as §2

[10] = 42 cases of intoxication, Beck et al. 2016; cited from earlier work
[11] = estimate from 1 and 10 μM concentrations (N = 2), N.C. = <5% displacement of radioligand at 10 μM, read-out: estimated pKi at M1R (converted)
[12] = estimated pKi at M2R, estimate from 1 and 10 μM concentrations (N = 2), N.C. = <5% displacement of radioligand at 10 μM
[13] = full dose-response [3H]Scopolamine competition binding, α-PPP and α-PBP interpolated, read-out: pKi at M1R (converted)
[14] = pKi at M2R, full dose-response [3H]Scopolamine competition binding, α-PPP and α-PBP interpolated

Structure (SMILES)	Ki [1] [µM]	Ki [4] [µM]	Ki [5, 12] [µM]	Ki [6] [µM]	Ki [2, 13] [µM]	further results
CCCC(C(=O)c1ccc2c(c1)OCO2)N1CCCC1 (centres unmarked) [MDPV, 3,4-Methylenedioxypyrovalerone]	70.8	8.91	13.8	6.31	–	Ki [2, 11]: 8.71 µM; cytotoxicity (mitochondrial activity, cellular membrane damage) [3]: this effect was not observed
CCCCCC(C(=O)c1ccc2c(c1)OCO2)N1CCCC1 (stereo not drawn) [MDPHPP, 3,4-Methylenedioxy-α-pyrrolidinoheptaphenone]	36.3	33.1	12	5.62	–	Ki [2, 11]: 6.03 µM
O=C1CCCN1CC#CCN1CCCC1 [oxotremorine, Oxotremorine]	–	–	–	–	–	pKi High at M1R [2]: 7.62±0.36; pKi Low at M1R [2]: 5.41±0.04; EC80, IP1 production [7]: 0.5 µM; pEC, IP1 production [7]: 7.21±0.20; pEC50, β-arrestin recruitment [8]: 5.71±0.11; pEC50, decrease of forskolin-stimulated cAMP production ([9]; 10 μM forskolin): 7.54±0.12; EC50 ([9]; 10 μM forskolin, read-out: EC50, decrease of forskolin-stimulated cAMP production): 0.029 µM; EC80, inhibition of cAMP formation ([9]; forskolin-stimulated): 0.13 µM; pKi High at M2R ([5]; two-site model): 7.92±0.40; pKi Low at M2R ([5]; two-site model): 6.15±0.10
CCCC(C(=O)c1ccccc1)N1CCCC1 (stereo not drawn) [α-PVP, α-Pyrrolidinopentiophenone]	6.03	8.13	–	4.17	5.13	patients presenting with tachycardia [10]: 80%; fold increase in M2R affinity compared to α-PBP [5]: 49 fold; fold increase in M2R affinity compared to α-PPP [5]: 89 fold; Ki ([5]; Ki at M2Rs, full dose-response [3H]Scopolamine competition binding): 0.824 µM
CCC(C(=O)c1ccccc1)N1CCCC1 (stereo not drawn) [α-PBP, α-Pyrrolidinobutiophenone]	–	–	–	–	75.9	Ki [5, 14]: 39.8 µM
CCC(C(=O)c1ccc2c(c1)OCO2)N1CCCC1 (stereo not drawn) [MDPBP, 3,4-Methylenedioxy-α-pyrrolidinobutiophenone]	14.5	10.2	12.6	18.2	–	–
CCCCCC(C(=O)c1ccccc1)N1CCCC1 (stereo not drawn) [α-PHPP, α-Pyrrolidinoheptaphenone]	1.12	1.38	–	1.15	1.95	Ki [5, 14]: 0.661 µM
CC(C(=O)c1ccccc1)N1CCCC1 (stereo not drawn) [α-PPP, α-Pyrrolidinopropiophenone]	–	–	–	–	195	Ki ([5]; Ki at M2Rs, full dose-response, interpolated): 73 µM; Ki [5, 14]: 75.9 µM
CCCCCCC(C(=O)c1ccccc1)N1CCCC1 (stereo not drawn) [α-PV9, α-Pyrrolidinooctanophenone]	–	–	–	–	–	cytotoxicity (mitochondrial activity, cellular membrane damage) [3]: potently decreased mitochondrial activity, and severely damaged cellular membranes
CCCCC(C(=O)c1ccc2c(c1)OCO2)N1CCCC1 (stereo not drawn) [MDPHP, 3,4-Methylenedioxy-α-pyrrolidinohexiophenone]	25.7	12.9	5.01	7.94	–	Ki ([2]; estimate from 1 and 10 μM screens, read-out: estimated Ki at M1Rs): 3.63 µM
CNC(C)C(=O)c1ccccc1 (centres unmarked) [methcathinone]	–	–	–	–	–	cytotoxicity (mitochondrial activity, cellular membrane damage) [3]: these toxic effects were not observed
